# What was measured:
# Assay in all cases: steady-state kinetics, DCIP reduction (spectrophotometric)
# Assay type in all cases: biochemical, Neurospora crassa
# Details in all cases: 2,6-dichloroindophenol as saturating co-substrate; pH 6.0 citrate-phosphate; 30 °C
# [1] = tested on: T1, CDHABB
# T1 construct: gene cdhIIB; single fused chain: CYT of NcCDHIIA + linker and DH of NcCDHIIB, no CBM1; expressed in Pichia pastoris KM71H; with Cellobiose dehydrogenase
# Excerpt: steady-state kinetics, DCIP reduction (spectrophotometric) on CDHABB
# [2] = tested on: T2, CDHAAB
# T2 construct: gene cdhIIB; single fused chain: CYT and linker of NcCDHIIA + DH of NcCDHIIB, no CBM1; expressed in Pichia pastoris KM71H; with Cellobiose dehydrogenase
# Excerpt: steady-state kinetics, DCIP reduction (spectrophotometric) on CDHAAB
# [3] = tested on: T3, CDHBAA
# T3 construct: gene cdhIIA; single fused chain: CYT of NcCDHIIB + linker, DH and CBM1 of NcCDHIIA; expressed in Pichia pastoris KM71H; with Cellobiose dehydrogenase
# Excerpt: steady-state kinetics, DCIP reduction (spectrophotometric) on CDHBAA
# [4] = tested on: T4, CDHBBA
# T4 construct: gene cdhIIA; single fused chain: CYT and linker of NcCDHIIB + DH and CBM1 of NcCDHIIA; expressed in Pichia pastoris KM71H; with Cellobiose dehydrogenase
# Excerpt: steady-state kinetics, DCIP reduction (spectrophotometric) on CDHBBA
smiles,measurement,setting,value
OC[C@H]1O[C@@H](O[C@H]2[C@H](O)[C@@H](O)C(O)O[C@@H]2CO)[C@H](O)[C@@H](O)[C@@H]1O (stereo partly shown) [cellobiose],Km,[1],26 ± 3 µM
same,Km,[2],46 ± 3 µM
same,Km,[3],57 ± 6 µM
same,Km,[4],75 ± 5 µM
